Each block holds one compound with its values, some of them ahead of it.
Assays:
[1] = 10 g sample, 3 min sieving; for Particle size distribution (Alpine AJS) <425 μm: mass fraction passing 425 μm sieve; for Particle size distribution (Alpine AJS) >75 μm: mass fraction retained on 75 μm sieve; for Particle size distribution (Alpine AJS) >180 μm: mass fraction retained on 180 μm sieve
Description: In general, the method for carrying out an air jet sieving procedure is as follows.
Together with sample material the sieve is placed on the unit and covered with a lid. A powerful industrial vacuum cleaner generates a strong jet of air which disperses the particles on the sieve through the slotted nozzle rotating below the sieve mesh. Thus the particles are dispersed with each rotation and are distributed over the complete sieve surface. The jet of air causes a continuous new orientation of the particles on the sieve surface. Particles with sizes smaller than the sieve apertures are sucked in by the vacuum cleaner. When using sieves of certain height (e.g. 25 mm height), the inflowing air causes the particles to impact on the lid, thereby helping to destroy agglomerates. The material remaining on the sieve can then be weighed, allowing the amount of the sample having a particle size greater than the aperture of the mesh to be calculated.
Preferably, the sample amount is representative of the sample, and has a mass of at least 10 g. Thus, in one embodiment, the sample amount is 10 g. In this or any other embodiment, sieving time is suitably 3 minutes.
The sieves for use in the air jet sieving method are woven metal sieves. The technical requirements of the test sieves are specified in ISO standard ISO 3310-1:2016 Test sieves—Technical requirements and testing—Part 1: Test sieves of metal wire cloth. The sieves are also according to standard ASTM E11.
The sieving is done according to the process described in Ph.Eur. 2.9.38 Particle-size distribution estimation by analytical sieving. Air jet sieving method is used to determine the mass distribution of particles.
Sieving was done using woven metal sieves according to ISO standard ISO 3310-1:2016 (Test sieves—Technical requirements and testing—Part 1: Test sieves of metal wire cloth). The sieving was done using a single sieve at a time using the appropriate sieve size (75 gm, 180 gm, 425 gm). The sieving was done according to the process described in Ph.Eur. 2.9.38 (Particle-size distribution estimation by analytical sieving).
The sieve was tared. 10 grams of the particle mixture was weighed on the sieve. The sieve was placed on air jet sieve unit and covered with a lid. The vacuum cleaner was switched on, thereby creating a vacuum inside the sieving chamber. The sieving under vacuum was continued for 3 minutes. The finest particles were pulled downwards trough the sieve and the coarse particles remained on the sieve. At the end of the sieving process, the sieve was weighed and the mass of particles remained on the sieve was determined. The sieving process was done as described above using one sieve at a time until the particle size distribution was determined.

[2] = Particle size distribution by laser light diffraction (Beckman Coulter LS 230); conditions: for Particle size / particle size distribution by laser light diffraction, in words: based on FIGS. 1-4; for Dv10 / Dv50 / Dv90: volume weighted, Fraunhofer model, suspended in glycerol and water (1:1), 100 mg sample
[3] = alcohols, esters, ethers and hydrocarbons; cited from earlier work

Compound: O=C1CN(/N=C/c2ccc([N+](=O)[O-])o2)C(=O)N1 [Comparison Example 9, nitrofurantoin anhydrate, reference compound]
- Particle size distribution (Alpine AJS) <425 μm [1]: 27%
- Particle size distribution (Alpine AJS) >75 μm [1]: 99%
- Particle size distribution (Alpine AJS) >180 μm [1]: 89%

Compound: O=C1CN(/N=C/c2ccc([N+](=O)[O-])o2)C(=O)N1 [Comparison example 8, nitrofurantoin anhydrate, reference compound]
- Particle size / particle size distribution by laser light diffraction, in words [2]: smaller than in example 2

Compound: O=C1CN(/N=C/c2ccc([N+](=O)[O-])o2)C(=O)N1 [Example 1, nitrofurantoin anhydrate]
- Particle size distribution (Alpine AJS) <425 μm [1]: 96%
- Particle size distribution (Alpine AJS) >75 μm [1]: 99%
- Particle size distribution (Alpine AJS) >180 μm [1]: 76%

Compound: O=C1CN(/N=C/c2ccc([N+](=O)[O-])o2)C(=O)N1 [Example 3, nitrofurantoin anhydrate]
- Particle size distribution (Alpine AJS) <425 μm [1]: 98%
- Particle size distribution (Alpine AJS) >75 μm [1]: 97%
- Particle size distribution (Alpine AJS) >180 μm [1]: 68%

Compound: O=C1CN(/N=C/c2ccc([N+](=O)[O-])o2)C(=O)N1 [Example 4, nitrofurantoin anhydrate]
- Particle size distribution (Alpine AJS) <425 μm [1]: 98%
- Particle size distribution (Alpine AJS) >75 μm [1]: 99%
- Particle size distribution (Alpine AJS) >180 μm [1]: 80%

Compound: O=C1CN(/N=C/c2ccc([N+](=O)[O-])o2)C(=O)N1 [Example 6, nitrofurantoin anhydrate]
- Particle size distribution (Alpine AJS) <425 μm [1]: 98%
- Particle size distribution (Alpine AJS) >75 μm [1]: 87%
- Particle size distribution (Alpine AJS) >180 μm [1]: 10%
- Particle size / particle size distribution by laser light diffraction, in words [2]: smaller than in example 2

Compound: O=C1CN(/N=C/c2ccc([N+](=O)[O-])o2)C(=O)N1 [Example 7, nitrofurantoin anhydrate]
- Particle size distribution (Alpine AJS) <425 μm [1]: 99%
- Particle size distribution (Alpine AJS) >75 μm [1]: 94%
- Particle size distribution (Alpine AJS) >180 μm [1]: 36%
- Particle size / particle size distribution by laser light diffraction, in words [2]: smaller than in example 2

Compound: O=C1CN(/N=C/c2ccc([N+](=O)[O-])o2)C(=O)N1 [Nitrofurantoin anhydrate, 1-[[(5-nitro-2-furanyl)methylene]amino]-2,4-imidazolidinedione]
- Solubility in most organic solvents [3]: sparingly soluble

Next, values leading:

- Particle size distribution (Alpine AJS) <425 μm [1]: 95%
- Particle size distribution (Alpine AJS) >75 μm [1]: 98%
- Particle size distribution (Alpine AJS) >180 μm [1]: 72%
- Particle size / particle size distribution by laser light diffraction, in words [2]: narrow particle size distribution
- Dv10 [2]: 126 μm
- Dv50 [2]: 264 μm
- Dv90 [2]: 448 μm
Compound: O=C1CN(/N=C/c2ccc([N+](=O)[O-])o2)C(=O)N1 [Example 2a, nitrofurantoin anhydrate]

- Particle size distribution (Alpine AJS) <425 μm [1]: 98%
- Particle size distribution (Alpine AJS) >75 μm [1]: 98%
- Particle size distribution (Alpine AJS) >180 μm [1]: 67%
- Particle size / particle size distribution by laser light diffraction, in words [2]: narrow particle size distribution
- Dv10 [2]: 163 μm
- Dv50 [2]: 348 μm
- Dv90 [2]: 667 μm
Compound: O=C1CN(/N=C/c2ccc([N+](=O)[O-])o2)C(=O)N1 [Example 2b, nitrofurantoin anhydrate]

- Particle size distribution (Alpine AJS) <425 μm [1]: 95%
- Particle size distribution (Alpine AJS) >75 μm [1]: 98%
- Particle size distribution (Alpine AJS) >180 μm [1]: 70%
- Particle size / particle size distribution by laser light diffraction, in words [2]: narrow particle size distribution
- Dv10 [2]: 118 μm
- Dv50 [2]: 252 μm
- Dv90 [2]: 466 μm
Compound: O=C1CN(/N=C/c2ccc([N+](=O)[O-])o2)C(=O)N1 [Example 2c, nitrofurantoin anhydrate]

- Particle size distribution (Alpine AJS) <425 μm [1]: 97%
- Particle size distribution (Alpine AJS) >75 μm [1]: 96%
- Particle size distribution (Alpine AJS) >180 μm [1]: 51%
Compound: O=C1CN(/N=C/c2ccc([N+](=O)[O-])o2)C(=O)N1 [Example 5a, nitrofurantoin anhydrate]

- Particle size distribution (Alpine AJS) <425 μm [1]: 98%
- Particle size distribution (Alpine AJS) >75 μm [1]: 95%
- Particle size distribution (Alpine AJS) >180 μm [1]: 52%
Compound: O=C1CN(/N=C/c2ccc([N+](=O)[O-])o2)C(=O)N1 [Example 5b, nitrofurantoin anhydrate]

- Particle size distribution (Alpine AJS) <425 μm [1]: 99%
- Particle size distribution (Alpine AJS) >75 μm [1]: 93%
- Particle size distribution (Alpine AJS) >180 μm [1]: 51%
Compound: O=C1CN(/N=C/c2ccc([N+](=O)[O-])o2)C(=O)N1 [Example 5c, nitrofurantoin anhydrate]
